Data reported in ChEMBL document CHEMBL1125524, “Adenosine A1 antagonists. 2. Structure-activity relationships on diuretic activities and protective effects against acute renal failure” (J Med Chem, 1992).
pKi: −log10 of the molar value.

Tests used:
Rattus norvegicus [1] = experiment: Serum creatinine concentration measured after intraperitoneal administration of 1 mg/kg of compound to rats(vehicle 4.74+/-0.31); format: functional
Rattus norvegicus [2] = experiment: Serum creatinine concentration measured after intraperitoneal administration of 0.1 mg/kg of compound to rats(vehicle 6.90+/-0.2); format: functional
Rattus norvegicus [3] = experiment: Effect on urinary excretion potassium and sodium after oral administration of 1.6 mg/kg to rats(potassium and sodium excretion in control rat is 0.174+/-0.013); format: functional, Urine
Rattus norvegicus [4] = experiment: Urea nitrogen concentration measured after intraperitoneal administration of 1 mg/kg of compound to rats(vehicle 138.8+/-7.8); format: functional
Rattus norvegicus [5] = experiment: Percent inhibition of serum creatinine by the compound given as ratio of Cr value in treated to vehicle treated ones after intraperitoneal administration of 1 mg/kg of compound to rats(vehicle 4.74+/-0.31); format: functional; conditions: ip
Rattus norvegicus [6] = experiment: Ratio of urinary excretion value (urinary volume) in treated rats to that in control rats, at a peroral dose of 1.6 mg/Kg; format: functional, Urine
Rattus norvegicus [7] = experiment: Ratio of sodium ion/potassium ion concentration in treated rats to that in control rats, at a peroral dose of 1.6 mg/Kg; format: functional
Rattus norvegicus [8] = experiment: Ratio of urinary excretion value (Na+ concentration) in treated rats to that in control rats, at a peroral dose of 1.6 mg/Kg; format: functional, Urine
Rattus norvegicus [9] = experiment: Ratio of urinary excretion value (Na+ concentration) in treated rats to that in control rats, at a peroral dose of 6.25 mg/Kg; format: functional, Urine
Rattus norvegicus [10] = experiment: Percent inhibition of serum creatinine by the compound given as ratio of Cr value in treated to vehicle treated ones after intraperitoneal administration of 0.1 mg/kg of compound to rats(vehicle 6.90+/-0.2); format: functional; conditions: ip
Rattus norvegicus [11] = experiment: Oral diuretic activity was measured after oral administration of 1.6 mg/kg to rats(control volume is 0.86+/-0.09); format: functional, Urine
Rattus norvegicus [12] = experiment: Urea nitrogen concentration measured after intraperitoneal administration of 0.1 mg/kg of compound to rats(vehicle 171.3+/-6.4); format: functional
Rattus norvegicus [13] = experiment: Percent inhibition of Urea nitrogen by the compound given as ratio of UN value in treated to vehicle treated ones after intraperitoneal administration of 1 mg/kg of compound to rats(vehicle 138.8+/-7.8); format: functional; conditions: ip
Rattus norvegicus [14] = experiment: Percent inhibition of Urea nitrogen by the compound given as ratio of UN value in treated to vehicle treated ones after intraperitoneal administration of 0.1 mg/kg of compound to rats(vehicle 171.3+/-6.4); format: functional; conditions: ip
Rattus norvegicus [15] = experiment: Ratio of urinary excretion value (urinary volume) in treated rats to that in control rats, at a peroral dose of 6.25 mg/Kg; format: functional, Urine
Adenosine receptor A1 = molecular target: T1, Adenosine receptor A1 (Cavia porcellus, UniProt P47745)
T1 sequence (P47745 whole entry): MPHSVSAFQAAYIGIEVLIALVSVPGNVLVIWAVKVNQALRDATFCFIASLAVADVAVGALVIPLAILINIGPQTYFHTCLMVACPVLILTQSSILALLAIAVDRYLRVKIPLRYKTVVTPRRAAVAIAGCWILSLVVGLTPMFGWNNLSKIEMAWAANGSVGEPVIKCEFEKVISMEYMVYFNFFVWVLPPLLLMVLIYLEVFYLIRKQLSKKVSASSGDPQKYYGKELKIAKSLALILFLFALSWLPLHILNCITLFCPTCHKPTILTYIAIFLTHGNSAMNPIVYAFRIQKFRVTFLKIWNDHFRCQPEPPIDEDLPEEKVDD
Description: Binding affinity against adenosine A1 receptor in guinea pig forebrain membranes using N6-[3H]cyclohexyladenosine as radioligand

Rattus norvegicus [16] = experiment: Ratio of urinary excretion value (urinary volume) in treated rats to that in control rats, at a peroral dose of 0.1 mg/Kg; format: functional, Urine
Rattus norvegicus [17] = experiment: Ratio of urinary excretion value (urinary volume) in treated rats to that in control rats, at a peroral dose of 0.4 mg/Kg; format: functional, Urine
Rattus norvegicus [18] = experiment: Ratio of urinary excretion value (urinary volume) in treated rats to that in control rats, at a peroral dose of 25 mg/Kg; format: functional, Urine
Rattus norvegicus [19] = experiment: Oral diuretic activity was measured after oral administration of 0.1 mg/kg to rats(control volume is 1.10+/-0.09); format: functional, Urine
Rattus norvegicus [20] = experiment: Ratio of sodium ion/potassium ion concentration in treated rats to that in control rats, at a peroral dose of 0.1 mg/Kg; format: functional
Rattus norvegicus [21] = experiment: Ratio of sodium ion/potassium ion concentration in treated rats to that in control rats, at a peroral dose of 0.4 mg/Kg; format: functional
Rattus norvegicus [22] = experiment: Ratio of sodium ion/potassium ion concentration in treated rats to that in control rats, at a peroral dose of 25 mg/Kg; format: functional
Rattus norvegicus [23] = experiment: Effect on urinary excretion potassium and sodium after oral administration of 1.6 mg/kg to rats(potassium and sodium excretion in control rat is 0.193+/-0.016); format: functional, Urine
Rattus norvegicus [24] = experiment: Ratio of urinary excretion value (Na+ concentration) in treated rats to that in control rats, at a peroral dose of 0.1 mg/Kg; format: functional, Urine
Rattus norvegicus [25] = experiment: Ratio of urinary excretion value (Na+ concentration) in treated rats to that in control rats, at a peroral dose of 0.4 mg/Kg; format: functional, Urine
Rattus norvegicus [26] = experiment: Ratio of urinary excretion value (Na+ concentration) in treated rats to that in control rats, at a peroral dose of 25 mg/Kg; format: functional, Urine
Rattus norvegicus [27] = experiment: Effect on urinary excretion potassium and sodium after oral administration of 25 mg/kg to rats(potassium and sodium excretion in control rat is 0.129+/-0.026); format: functional, Urine
Rattus norvegicus [28] = experiment: Oral diuretic activity was measured after oral administration of 25 mg/kg to rats(control volume is 1.00+/-0.13); format: functional, Urine
Rattus norvegicus [29] = experiment: Oral diuretic activity was measured after oral administration of 0.4 mg/kg to rats(control volume is 0.83+/-0.08); format: functional, Urine
Rattus norvegicus [30] = experiment: Oral diuretic activity was measured after oral administration of 1.6 mg/kg to rats(control volume is 0.91+/-0.08); format: functional, Urine
Rattus norvegicus [31] = experiment: Serum creatinine concentration measured after intraperitoneal administration of 1 mg/kg of compound to rats(vehicle 5.43+/-0.11); format: functional
Rattus norvegicus [32] = experiment: Effect on urinary excretion potassium and sodium after oral administration of 0.1 mg/kg to rats(potassium and sodium excretion in control rat is 0.169+/-0.018); format: functional, Urine
Rattus norvegicus [33] = experiment: Effect on urinary excretion potassium and sodium after oral administration of 0.4 mg/kg to rats(potassium and sodium excretion in control rat is 0.132+/-0.010); format: functional, Urine
Rattus norvegicus [34] = experiment: Urea nitrogen concentration measured after intraperitoneal administration of 1 mg/kg of compound to rats(vehicle 182.5+/-3.4); format: functional
Rattus norvegicus [35] = experiment: Percent inhibition of serum creatinine by the compound given as ratio of Cr value in treated to vehicle treated ones after intraperitoneal administration of 1 mg/kg of compound to rats(vehicle 5.43+/-0.11); format: functional; conditions: ip
Rattus norvegicus [36] = experiment: Percent inhibition of Urea nitrogen by the compound given as ratio of UN value in treated to vehicle treated ones after intraperitoneal administration of 1 mg/kg of compound to rats(vehicle 182.5+/-3.4); format: functional; conditions: ip
Rattus norvegicus [37] = experiment: Serum creatinine concentration measured after intraperitoneal administration of 1 mg/kg of compound to rats(vehicle 5.07+/-0.33); format: functional; conditions: 1 mg/kg
Rattus norvegicus [38] = experiment: Urea nitrogen concentration measured after intraperitoneal administration of 1 mg/kg of compound to rats(vehicle 195.8+/-14.4); format: functional; conditions: 1 mg/kg
Rattus norvegicus [39] = experiment: Effect on urinary excretion potassium and sodium after oral administration of 1.6 mg/kg to rats(potassium and sodium excretion in control rat is 0.105+/-0.002); format: functional, Urine
Rattus norvegicus [40] = experiment: Effect on urinary excretion potassium and sodium after oral administration of 25 mg/kg to rats(potassium and sodium excretion in control rat is 0.180+/-0.024); format: functional, Urine
Rattus norvegicus [41] = experiment: Oral diuretic activity was measured after oral administration of 25 mg/kg to rats(control volume is 1.00+/-0.09); format: functional, Urine
Rattus norvegicus [42] = experiment: Oral diuretic activity was measured after oral administration of 1.6 mg/kg to rats(control volume is 0.79+/-0.12); format: functional, Urine
Rattus norvegicus [43] = experiment: Percent inhibition of Urea nitrogen by the compound given as ratio of UN value in treated to vehicle treated ones after intraperitoneal administration of 1 mg/kg of compound to rats(vehicle 195.8+/-14.4); format: functional; conditions: Rattus norvegicus, ip
Adenosine A2 receptor = Adenosine A2 receptor (Rattus norvegicus, UniProt P29276+P30543)
Rattus norvegicus [44] = species on record: Rattus norvegicus; experiment: animal or person; conditions: ip, read-out: Inhibition, dose 1 mg/kg, route intraperitoneal

SMILES: Cn1c(=O)c2nc(C3CCCC3)[nH]c2n(C)c1=O [8-CYCLOPENTYLTHEOPHYLLINE]
- Cr (Rattus norvegicus [1]): 2.22 mg/dL
- Cr (Rattus norvegicus [2]): 7.26 mg/dL
- Na (Rattus norvegicus [3]): 0.217 m equiv 6hr-1 100g-1
- UN (Rattus norvegicus [4]): 63.6 mg/dL
- inhibition in vivo at 1 mg/kg (Rattus norvegicus [5]): 53%
- T/C (Rattus norvegicus [6]): 1.23
- Na+/K+ (Rattus norvegicus [7]): 1.12
- T/C (Rattus norvegicus [8]): 1.25
- T/C (Rattus norvegicus [9]): 1.82
- inhibition in vivo at 0.1 mg/kg (Rattus norvegicus [10]): -5%
- Urine volume (Rattus norvegicus [11]): 1.06 ml 6hr-1 100g-1
- UN (Rattus norvegicus [12]): 168.7 mg/dL
- inhibition in vivo at 1 mg/kg (Rattus norvegicus [13]): 54%
- inhibition in vivo at 0.1 mg/kg (Rattus norvegicus [14]): 1%
- T/C (Rattus norvegicus [15]): 1.64
- pKi (Adenosine receptor A1): 7.02

SMILES: CCCn1c(=O)c2[nH]c(C3CCCC3)nc2n(CCC)c1=O [1,3-DIPROPYL-8-CYCLOPENTYLXANTHINE [DPCPX]]
- T/C (Rattus norvegicus [16]): 1.24
- T/C (Rattus norvegicus [17]): 2.47
- T/C (Rattus norvegicus [6]): 2.79
- T/C (Rattus norvegicus [18]): 1.93
- Urine volume (Rattus norvegicus [19]): 1.36 ml 6hr-1 100g-1
- Na+/K+ (Rattus norvegicus [20]): 1.54
- Na+/K+ (Rattus norvegicus [21]): 1.76
- Na+/K+ (Rattus norvegicus [7]): 1.57
- Na+/K+ (Rattus norvegicus [22]): 1.27
- Na (Rattus norvegicus [23]): 0.449 m equiv 6hr-1 100g-1
- T/C (Rattus norvegicus [24]): 1.27
- T/C (Rattus norvegicus [25]): 2.28
- T/C (Rattus norvegicus [8]): 2.33
- T/C (Rattus norvegicus [26]): 2.46
- T/C (Rattus norvegicus [9]): 1.98
- Na (Rattus norvegicus [27]): 0.316 m equiv 6hr-1 100g-1
- Urine volume (Rattus norvegicus [28]): 1.93 ml 6hr-1 100g-1
- Urine volume (Rattus norvegicus [29]): 2.05 ml 6hr-1 100g-1
- Urine volume (Rattus norvegicus [30]): 2.54 ml 6hr-1 100g-1
- Cr (Rattus norvegicus [31]): 3.75 mg/dL
- Na (Rattus norvegicus [32]): 0.215 m equiv 6hr-1 100g-1
- Na (Rattus norvegicus [33]): 0.302 m equiv 6hr-1 100g-1
- UN (Rattus norvegicus [34]): 131.7 mg/dL
- inhibition in vivo at 1 mg/kg (Rattus norvegicus [35]): 31%
- inhibition in vivo at 1 mg/kg (Rattus norvegicus [36]): 27%
- T/C (Rattus norvegicus [15]): 1.87

SMILES: CCCn1c(=O)c2nc(C3CC4CCC3C4)[nH]c2n(CCC)c1=O (stereo in doubt; 19)
- Cr (Rattus norvegicus [37]): 2.59 mg/dL
- UN (Rattus norvegicus [38]): 101 mg/dL
- Na (Rattus norvegicus [39]): 0.337 m equiv 6hr-1 100g-1
- T/C (Rattus norvegicus [6]): 3.14
- T/C (Rattus norvegicus [18]): 2.54
- Na+/K+ (Rattus norvegicus [7]): 2.04
- Na+/K+ (Rattus norvegicus [22]): 1.84
- T/C (Rattus norvegicus [8]): 3.22
- T/C (Rattus norvegicus [26]): 2.37
- Na (Rattus norvegicus [40]): 0.427 m equiv 6hr-1 100g-1
- Urine volume (Rattus norvegicus [41]): 2.54 ml 6hr-1 100g-1
- Urine volume (Rattus norvegicus [42]): 2.48 ml 6hr-1 100g-1
- inhibition in vivo at 1 mg/kg (Rattus norvegicus [43]): 48%
- pKi (Adenosine receptor A1): 8.42
- Ki (Adenosine A2 receptor): 440 nM
- inhibition in vivo at 1 mg/kg (Rattus norvegicus [44]): 49%
